Experimental data published in patent US6258840A, “Analogues or derivatives of quercetin (prodrugs)” (Cobra Therapeutics Limited, priority 1996, dated 2001).
Structures can show the parent of a compound that is named as a salt. Where two headings read alike, the source gives them in different places.

Key:
[1] = Stability to Human Plasma (HPLC, 37° C.); assay type: in vitro ADME; details: for half-life: 0.02 ml of 6.3 mg/ml prodrug solution added to 2.5 ml plasma
Procedure: Freshly prepared plasma (2.5 ml) was incubated at 37° C. and 0.02 ml of a 6.3 mg/ml solution of the prodrug compound in water was added. Aliquots of plasma were taken for HPLC analysis at zero time and at intervals thereafter. Samples were quenched with chilled methanol, the resulting precipitate was centrifuged at 4° C. at 800 rpm for 5 minutes, and the supernatant was analysed by HPLC.

[2] = tested on: antiproliferative activity of cis-diaminedichloroplatinum II (cis-DDP); details: in vitro, with cis-DDP; cited from earlier work
[3] = tested on: antiproliferative activity of cis-diaminedichloroplatinum II (cis-DDP); details: in vivo, with cis-DDP; cited from earlier work
[4] = tested on: calcium- and phospholipid dependent protein kinase (protein kinase C); details: in vitro; cited from earlier work
[5] = tested on: calcium- and phospholipid dependent protein kinase (protein kinase C); details: in vivo; cited from earlier work
[6] = pharmaceutically acceptable solvents; cited from earlier work

## 3'/4'-((N-Carboxymethyl)carbamoyloxy)-3,4'(3'),5,7-tetrahydroxy-flavone, N-Methyl-D-glucamine salt
10 mg/ml solution in water
  pH of solution in water: approximately 7
10 mg/ml solution in water, -20° C.
  period for which the solution is stable: at least 12 weeks
Diluted into dextrose, final prodrug concentration 1 mg/ml
  pH of solution in dextrose: approximately 6

## O=C(O)CNC(=O)Oc1cc(-c2oc3cc(O)cc(O)c3c(=O)c2O)ccc1O [3' carbamate ester, 3'-((N-Carboxymethyl)carbamoyloxy)-3,4',5,7-tetrahydroxyflavone, N-Methyl-D-glucamine salt]
[1]
  conversion into Quercetin: converted into Quercetin
  half-life: ~1 h

## O=c1c(O)c(-c2ccc(O)c(O)c2)oc2cc(O)cc(O)c12 [Quercetin, 3,3',4',5,7-pentahydroxyflavone]
[2]
  enhancement of antiproliferative activity of cis-DDP: synergistically enhances the antiproliferative activity
[3]
  enhancement of antiproliferative activity of cis-DDP: synergistically enhances the antiproliferative activity
[4]
  inhibition of protein kinase C activity: inhibit the activity
[5]
  inhibition of protein kinase C activity: inhibit the activity
[6]
  solubility: limited solubility

## O=C(O)CNC(=O)Oc1ccc(-c2oc3cc(O)cc(O)c3c(=O)c2O)cc1O [4' carbamate ester]
[1]
  conversion into Quercetin: converted into Quercetin
  half-life: ~1 h
